Key:
Type in all cases: in vitro ADME
CYP2C9 = CYP2C9 (Homo sapiens, UniProt P11712); test: CYP2C9 inhibition
CYP2D6 = CYP2D6 (Homo sapiens, UniProt P10635); test: CYP2D6 inhibition
CYP3A4 = CYP3A4 (Homo sapiens, UniProt P08684); test: CYP3A4 inhibition
Sequence of CYP3A4 (P08684 whole entry, species assumed): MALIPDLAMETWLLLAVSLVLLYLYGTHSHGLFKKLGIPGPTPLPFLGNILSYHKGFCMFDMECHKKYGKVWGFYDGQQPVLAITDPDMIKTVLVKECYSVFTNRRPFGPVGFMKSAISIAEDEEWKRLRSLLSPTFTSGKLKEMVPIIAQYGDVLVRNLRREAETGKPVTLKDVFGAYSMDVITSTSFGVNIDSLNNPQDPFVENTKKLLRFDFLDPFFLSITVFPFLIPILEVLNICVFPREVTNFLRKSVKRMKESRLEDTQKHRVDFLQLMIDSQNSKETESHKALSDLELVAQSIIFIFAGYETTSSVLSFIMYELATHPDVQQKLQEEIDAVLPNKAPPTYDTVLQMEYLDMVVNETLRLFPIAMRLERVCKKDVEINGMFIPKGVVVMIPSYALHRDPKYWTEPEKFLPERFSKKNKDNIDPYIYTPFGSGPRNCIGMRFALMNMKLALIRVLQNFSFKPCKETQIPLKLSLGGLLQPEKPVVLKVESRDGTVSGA

Sequence of CYP2D6 (P10635 whole entry, species assumed): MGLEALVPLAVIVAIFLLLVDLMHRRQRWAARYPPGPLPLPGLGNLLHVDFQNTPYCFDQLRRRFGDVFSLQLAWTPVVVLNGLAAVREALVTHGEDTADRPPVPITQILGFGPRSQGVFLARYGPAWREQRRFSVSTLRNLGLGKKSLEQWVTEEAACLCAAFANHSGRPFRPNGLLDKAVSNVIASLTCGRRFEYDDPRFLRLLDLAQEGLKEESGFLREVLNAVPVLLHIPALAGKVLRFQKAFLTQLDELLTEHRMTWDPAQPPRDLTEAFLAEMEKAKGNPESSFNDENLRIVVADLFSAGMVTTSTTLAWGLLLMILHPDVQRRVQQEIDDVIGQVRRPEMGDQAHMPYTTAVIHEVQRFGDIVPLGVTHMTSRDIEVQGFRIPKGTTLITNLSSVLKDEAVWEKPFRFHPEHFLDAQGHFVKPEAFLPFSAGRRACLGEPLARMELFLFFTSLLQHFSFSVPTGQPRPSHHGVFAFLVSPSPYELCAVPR
Sequence of CYP2C9 (P11712 whole entry, species assumed): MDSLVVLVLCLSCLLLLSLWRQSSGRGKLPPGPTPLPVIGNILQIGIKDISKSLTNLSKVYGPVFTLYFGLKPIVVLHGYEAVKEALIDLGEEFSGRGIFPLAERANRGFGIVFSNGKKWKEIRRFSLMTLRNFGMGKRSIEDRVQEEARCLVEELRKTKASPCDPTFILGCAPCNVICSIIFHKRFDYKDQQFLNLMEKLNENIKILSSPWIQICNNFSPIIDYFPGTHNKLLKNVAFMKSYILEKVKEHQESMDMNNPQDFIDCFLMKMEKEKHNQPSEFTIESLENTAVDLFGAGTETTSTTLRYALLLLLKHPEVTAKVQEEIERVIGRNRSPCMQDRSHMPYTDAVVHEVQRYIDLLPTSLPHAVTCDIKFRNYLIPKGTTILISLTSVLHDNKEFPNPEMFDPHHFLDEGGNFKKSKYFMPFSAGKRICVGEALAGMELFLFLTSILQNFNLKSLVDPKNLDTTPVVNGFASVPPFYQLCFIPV

CYP2C9 % inhibition (CYP2C9): −36% | CYP2D6 % inhibition (CYP2D6): 8% | CYP3A4 % inhibition (CYP3A4): −21%
Compound: COc1ncccc1-c1ccc(NC(=O)NCCCCN2CCCCC2)cc1

From patent US20100016360A1 (WYETH, priority 2008, published 2010)
